Laboratory results taken from PMC6584507 (Scientific Reports, 2019).
Converted amounts (≈) assume the structure as drawn. Each block holds one compound with its values, some of them ahead of it.

Assays:
[1] = system: STAT5 phosphorylation in hTSLP-stimulated HMC-1 cells; experiment: STAT5 assay (STAT5 phosphorylation, flow cytometry); type: cell-based, human
Description: (§1) HMC-1 cells were obtained from the Department of Food Technology and Inflammatory Disease Research Center (Hoseo University, Asan, Chungnam, Korea). Cells were cultured in Iscove’s modified Dulbecco’s medium (IMDM; Hyclone Laboratories Inc, USA) supplemented with 10% FBS and 1% Penicillin-streptomycin (PS; Gibco Industries Inc, USA) and incubated at 37 °C under humidified atmosphere of 95% air and 5% CO2. Recombinant hTSLP was purchased from R&D Systems (Minneapolis, USA).
Intracellular phospho-STAT5 (pSTAT5) staining method was based on the protocol obtained from the laboratory of Susan Kaech, Department of Immunobiology, Yale University School of Medicine (New Haven, Connecticut, USA). Briefly, HMC-1 cells were seeded in 96-well U-bottom plate at a density of 1 × 10^7 cells/mL and stimulated with 100 ng/mL recombinant hTSLP alone or with 1 for 30 min. After stimulation, cells were fixed with BD Cytofix/Cytoperm (BD Biosciences, USA) solution for 10 min. Fixed cells were then permeabilized with ice-cold methanol for 30 min, and intracellular pSTAT5 was stained with Alexa Fluor 647 mouse anti-STAT5 (pY694; BD Biosciences, USA) (1:10 dilution in FACS buffer) for 30 min. Stained cells were further fixed with BD Cytofix/Cytoperm solution for 10 min and re-suspended in FACS buffer for flow cytometry analysis. Cells were analyzed by a BD LSR Fortessa Flow cytometry (BD Biosciences, USA). FACS data were analyzed using FlowJo software Ver 9. 7. 6 (Tree Star Inc., USA).

hTSLP/hTSLPR interaction = molecular target: T1, hTSLP/hTSLPR interaction (Homo sapiens, UniProt Q969D9); experiment: ELISA of hTSLP/hTSLPR interaction (FLAG-hTSLP, hTSLPR-His); type: binding; conditions: for inhibition at 300 µM / inhibition at 1000 µM: read-out: % inhibition (hTSLP-inhibitory activity by ELISA);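 on all read-outs here: His-tagged hTSLPR captured on Ni-NTA plates, compounds plus FLAG-hTSLP incubated 18 h at 4 °C, bound ligand detected with HRP anti-FLAG, OD 450 nm relative to control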
T1 construct: human TSLP28–159 with thrombin cleavage site at C-terminus; thrombin cleavage site (C); 8xHis (from vector pAB-bee-8xHis) (C, cleaved yes); made in house; host or cells: Trichoplusia ni High-Five cells, baculovirus (secreted)
T1 sequence (Q969D9 28-159): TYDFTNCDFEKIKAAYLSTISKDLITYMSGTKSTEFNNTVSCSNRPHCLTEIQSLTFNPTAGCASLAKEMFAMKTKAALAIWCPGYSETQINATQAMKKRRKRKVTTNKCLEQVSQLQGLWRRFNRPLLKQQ

[2] = Kinetic aqueous solubility; type: physicochemical; conditions: 0.1 M potassium phosphate buffer, kinetic from dmso stock, PBS / phosphate buffer pH 7.4
Description: In brief, 10 mM stock solution of tested compounds was prepared in DMSO. 25 μL of the stock solution was added to a 1-mL uniprep vial containing 475 μL of 0.1 M potassium phosphate buffer (pH 7.4), and was shaken at 800 rpm for 90 min at room temperature. Following shaking, the mixture was filtered by slowly pressing the upper tube of the 1 mL Mini-Uniprep^TM filter (PTFE membrane, 0.45 μm). 250 μL of the filtrate solution was then transferred to a HPLC vial containing equal volume of acetonitrile.

[3] = system: pSTAT5 in TSLP-stimulated HMC-1 cells; experiment: Western blot analysis of STAT5 phosphorylation; type: cell-based, human; conditions: TSLP 20 ng/mL for 2 h
Description: as §1
[…] Activated cells were lysed and separated by 10% sodium dodecyl sulfate-polyacrylamide gel electrophoresis (SDS-PAGE). After electrophoresis, proteins were transferred to nitrocellulose membranes. The membranes were blocked, incubated with primary antibodies (1:700 dilution in PBS with 0.05% Tween-20), and developed using peroxidase-conjugated secondary antibodies (1:3000 dilution in PBS with 0.05% Tween-20). Proteins were visualized by enhanced chemiluminescence (Amersham Bioseciences, Piscataway, NJ, USA) according to the manufacturer’s instructions.

IC50 (hTSLP/hTSLPR interaction): 370 µM
solubility kinetic at 90 min [2]: 66 µM (≈ 23 µg/mL)
Compound: O=C1CC(c2cccc(-c3ccc(O)cc3)c2)Oc2cc(O)cc(O)c21 (centres unmarked) [Compound 11a, 5,7-Dihydroxy-2-(4′-hydroxy-[1,1′-biphenyl]-3-yl)chroman-4-one]
inhibition of STAT5 phosphorylation, Western blot (in words) ([3]; even at 0.01 μM, HMC-1 cells): strongly inhibited

hTSLP-inhibitory activity by ELISA, comparison in words (hTSLP/hTSLPR interaction): weaker
solubility kinetic at 90 min [2]: 505 µM (≈ 137 µg/mL)
Compound: O=C1CC(c2ccc(O)cc2)Oc2cc(O)cc(O)c21 (centres unmarked) [Compound 7b, 5,7-Dihydroxy-2-(4-hydroxyphenyl)chroman-4-one]

hTSLP-inhibitory activity by ELISA, comparison in words (hTSLP/hTSLPR interaction): weaker
solubility kinetic at 90 min [2]: 111 µM (≈ 28.4 µg/mL)
Compound: O=C1CC(c2ccccc2)Oc2cc(O)cc(O)c21 (centres unmarked) [Compound 7a, 5,7-Dihydroxy-2-phenylchroman-4-one]

inhibition at 300 µM (hTSLP/hTSLPR interaction; 0.3 mM): > 50%
Compound: O=c1cc(-c2cccc(-c3ccc([N+](=O)[O-])cc3)c2)oc2cc(O)c(O)cc12 [Compound 10h, 6,7-Dihydroxy-2-(4′-nitro-[1,1′-biphenyl]-3-yl)-4H-chromen-4-one]

% inhibition (hTSLP-inhibitory activity by ELISA) (hTSLP/hTSLPR interaction; 0.3 mM): 1.7 ± 9.0%
% inhibition (hTSLP-inhibitory activity by ELISA) (hTSLP/hTSLPR interaction; 1 mM): 11.6 ± 6.3%
Compound: COc1c(O)cc2oc(-c3ccccc3)cc(=O)c2c1O [KUP-119, oroxylin A]

IC50 (hTSLP/hTSLPR interaction): 177 µM
inhibition at 300 µM (hTSLP/hTSLPR interaction; 0.3 mM): > 50%
Compound: O=c1cc(-c2cccc(-c3ccccc3)c2)oc2cc(O)c(O)cc12 [Compound 10e, 2-([1,1′-Biphenyl]-3-yl)-6,7-dihydroxy-4H-chromen-4-one]
inhibition of STAT5 phosphorylation, Western blot (in words) ([3]; HMC-1 cells pretreated): stronger than compound 1

IC50 (hTSLP/hTSLPR interaction): 210 µM
inhibition at 300 µM (hTSLP/hTSLPR interaction; 0.3 mM): > 50%
Compound: O=c1cc(-c2cccc(-c3ccc(O)cc3)c2)oc2cc(O)c(O)cc12 [Compound 10g, 6,7-Dihydroxy-2-(4′-hydroxy-[1,1′-biphenyl]-3-yl)-4H-chromen-4-one]
inhibition of STAT5 phosphorylation, Western blot (in words) ([3]; HMC-1 cells pretreated): stronger than compound 1

inhibition at 300 µM (hTSLP/hTSLPR interaction; 0.3 mM): > 50%
Compound: O=c1cc(-c2cccc(-c3ccc(O)cc3)c2)oc2cc(O)cc(O)c12 [Compound 10a, 5,7-Dihydroxy-2-(4′-hydroxy-[1,1′-biphenyl]-3-yl)-4H-chromen-4-one]

The remaining lines, values behind:

Compound: O=C(O)[C@H]1O[C@@H](Oc2cc3oc(-c4ccccc4)cc(=O)c3c(O)c2O)[C@H](O)[C@@H](O)[C@@H]1O [KUP-040, baicalin]
STAT5 phosphorylation % ([1]; 3 µM): 69.7%
STAT5 phosphorylation % ([1]; 10 μM): 68.8%

Compound: O=C(O)[C@H]1O[C@@H](Oc2cc3oc(-c4ccccc4)cc(=O)c3c(O)c2O)[C@H](O)[C@@H](O)[C@@H]1O [Compound 1a, baicalin]
inhibition at 300 µM (hTSLP/hTSLPR interaction; 0.3 mM): 12.1 ± 1.8%
inhibition at 1000 µM (hTSLP/hTSLPR interaction; 1 mM): 19.9 ± 0.2%

Compound: COc1cccc(O)c1-c1cc(=O)c2c(O)c(OC)c(OC)c(OC)c2o1 [Compound 1d, skullcapflavone II]
inhibition at 300 µM (hTSLP/hTSLPR interaction; 0.3 mM): < 5%
inhibition at 1000 µM (hTSLP/hTSLPR interaction; 1 mM): < 5%

Compound: COc1c(O)cc(O)c2c(=O)cc(-c3ccccc3)oc12 [Compound 1b, wogonin]
inhibition at 300 µM (hTSLP/hTSLPR interaction; 0.3 mM): < 5%
inhibition at 1000 µM (hTSLP/hTSLPR interaction; 1 mM): < 5%

Compound: O=c1cc(-c2ccc(O)cc2)oc2cc(O)cc(O)c12 [Compound 6b, 5,7-Dihydroxy-2-(4-hydroxyphenyl)-4H-chromen-4-one]
solubility kinetic at 90 min [2]: 486 µM (≈ 131 µg/mL)

Compound: COc1cc2oc(-c3ccccc3)cc(=O)c2c(OC)c1OC [Compound 2]
inhibition at 300 µM (hTSLP/hTSLPR interaction; 0.3 mM): < 5%
inhibition at 1000 µM (hTSLP/hTSLPR interaction; 1 mM): 12 ± 2.8%

Compound: COc1c(O)cc2oc(-c3ccccc3)cc(=O)c2c1O [Compound 1c, oroxylin A]
% inhibition (hTSLP-inhibitory activity by ELISA) (hTSLP/hTSLPR interaction; 0.3 mM): <5%
inhibition at 1000 µM (hTSLP/hTSLPR interaction; 1 mM): 11.6 ± 6.3%

Compound: O=c1cc(-c2ccccc2)oc2cccc(O)c12 [Compound 3c]
inhibition at 300 µM (hTSLP/hTSLPR interaction; 0.3 mM): 24.1 ± 5.4%
inhibition at 1000 µM (hTSLP/hTSLPR interaction; 1 mM): 16.8 ± 2%

Compound: O=C1CC(c2c(O)cccc2O)Oc2cc(O)cc(O)c21 (centres unmarked) [Compound 1f, 2′,5,6′,7-tetrahydroflavanone]
inhibition at 300 µM (hTSLP/hTSLPR interaction; 0.3 mM): 14 ± 3.8%
inhibition at 1000 µM (hTSLP/hTSLPR interaction; 1 mM): 8.4 ± 5.8%

Compound: O=c1cc(-c2ccccc2)oc2cc(O)cc(O)c12 [Compound 6a, 5,7-Dihydroxy-2-phenyl-4H-chromen-4-one]
solubility kinetic at 90 min [2]: 30 µM (≈ 7.63 µg/mL)

Compound: COc1c(O)ccc(O)c1-c1cc(=O)c2c(O)cc(O)c(OC)c2o1 [Compound 1e, viscidulin III]
inhibition at 300 µM (hTSLP/hTSLPR interaction; 0.3 mM): 12.8 ± 0.6%
inhibition at 1000 µM (hTSLP/hTSLPR interaction; 1 mM): 26.3%

Compound: O=c1cc(-c2ccccc2)oc2cc(O)ccc12 [Compound 3a]
inhibition at 300 µM (hTSLP/hTSLPR interaction; 0.3 mM): 16.4 ± 2.7%
inhibition at 1000 µM (hTSLP/hTSLPR interaction; 1 mM): 23.3 ± 6.8%

Compound: O=c1cc(-c2ccccc2)oc2ccc(O)cc12 [Compound 3b]
inhibition at 300 µM (hTSLP/hTSLPR interaction; 0.3 mM): 22.2 ± 2.5%
inhibition at 1000 µM (hTSLP/hTSLPR interaction; 1 mM): 38.7 ± 5.3%
